Source: patent US8343892B2 (priority 2003, dated 2013)

Test system: Phytophthora infestans
Assay type: in vivo
Settings: tomato (Marmande), 48 h preventive, assessed 5 days after contamination; lower line = chlorothalonil dose (in mixture or alone)

## N#Cc1c(Cl)c(Cl)c(Cl)c(C#N)c1Cl [Chlorothalonil, tetrachloroisophthalonitrile]
  ED70, Practical doses for 70% efficacy: dose of chlorothalonil: 16.1 µg/mL
  ED90, Practical doses for 90% efficacy: dose of chlorothalonil: 36.7 µg/mL
